{"source": "ChEMBL document CHEMBL3797140", "about": "“Acridin-3,6-dialkyldithiourea hydrochlorides as new photosensitizers for photodynamic therapy of mouse leukemia cells” (Bioorg Med Chem, 2016)", "key": {"L1210 [1]": {"system": "L1210", "assay": "Induction of DNA fragmentation in mouse L1210 cells at 0.5 to 1 uM preincubated for 1 hr followed by 1.05 J/cm2 UV-A irradiation measured after 6 hrs by agarose gel electrophoresis", "format": "functional, cell-based"}, "L1210 [2]": {"system": "L1210", "assay": "Induction of autophagy in mouse L1210 cells assessed as accumulation of LC3BII at 0.5 to 1 uM preincubated for 1 hr followed by 1.05 J/cm2 UV-A irradiation measured after 4 to 6 hrs by Western blot method", "format": "functional, cell-based"}, "L1210 [3]": {"system": "L1210", "assay": "Induction of apoptosis in mouse L1210 cells assessed as late apoptotic cells at 0.5 uM preincubated for 1 hr followed by 1.05 J/cm2 UV-A irradiation measured after 24 hrs by Hoechst 33342 and propidium iodide staining-based fluorescence microscopy", "format": "functional, cell-based"}, "L1210 [4]": {"system": "L1210", "assay": "Induction of cell cycle arrest in mouse L1210 cells assessed as accumulation at G1 phase at 0.5 and 1 uM preincubated for 1 hr followed by 1.05 J/cm2 UV-A irradiation measured after 24 hrs by propidium iodide staining-based flow cytometry (reference value: 16.8 +/- 0.6%)", "format": "functional"}, "[5]": {"assay": "Drug uptake in cytosol of mouse L1210 cells at 1 uM after 1 to 6 hrs by fluorescence microscopy", "format": "ADME, cell-based"}, "[6]": {"assay": "Dark toxicity against mouse NIH/3T3 cells assessed as cell viability after 48 hrs by MTT assay", "format": "cell-based, NIH3T3"}, "[7]": {"assay": "Dark toxicity against mouse L1210 cells assessed as cell viability after 48 hrs by MTT assay", "format": "cell-based"}, "L1210 [8]": {"system": "L1210", "assay": "Induction of cell cycle arrest in mouse L1210 cells assessed as accumulation at sub-G0 phase at 0.5 uM preincubated for 1 hr followed by 1.05 J/cm2 UV-A irradiation measured after 24 hrs by propidium iodide staining-based flow cytometry (reference value: 16.8 +/- 0.6%)", "format": "functional"}, "[9]": {"assay": "Drug uptake in lysosome of mouse L1210 cells at 2 uM preincubated for 1 hr followed by 1.05 J/cm2 UV-A irradiation by LysoTracker staining-based flow cytometry", "format": "ADME, cell-based", "conditions": "l1210, 2 µM"}, "L1210 [10]": {"system": "L1210", "assay": "Induction of cell cycle arrest in mouse L1210 cells assessed as accumulation at sub-G0 phase at 0.5 uM preincubated for 1 hr measured after 4 hrs by propidium iodide staining-based flow cytometry in absence of light (reference value: 16.6 +/- 0.4%)", "conditions": "l1210, 4 h"}, "L1210 [11]": {"system": "L1210", "assay": "Phototoxicity against mouse L1210 cells assessed as cell viability preincubated for 1 hr followed by 1.05 J/cm2 UV-A irradiation measured after 48 hrs by MTT assay in presence of 3-methyladenine", "format": "functional, cell-based"}, "[12]": {"assay": "Phototoxicity against mouse NIH/3T3 cells assessed as cell viability preincubated for 1 hr followed by 1.05 J/cm2 UV-A irradiation measured after 48 hrs by MTT assay", "format": "cell-based", "conditions": "NIH3T3, light or radiation study"}, "[13]": {"assay": "Induction of ROS generation measured after UV-A irradiation by spin trapping agent DMPO based EPR spectroscopy", "format": "physicochemical"}, "L1210 [14]": {"system": "L1210", "assay": "Induction of apoptosis in mouse L1210 cells assessed as Bax level at 0.5 uM preincubated for 1 hr measured after 8 hrs by Western blot method in absence of light", "format": "cell-based", "conditions": "l1210, 8 h"}, "[15]": {"assay": "Cytotoxicity against human HL60 cells after 48 hrs by MTT assay", "format": "functional, cell-based", "conditions": "HL-60, 48 h"}, "L1210 [16]": {"system": "L1210", "assay": "Phototoxicity in mouse L1210 cells at 0.5 uM preincubated for 1 hr followed by 1.05 J/cm2 UV-A irradiation measured after 6 hrs by lactate dehydrogenase leakage assay", "format": "functional, cell-based"}, "L1210 [17]": {"system": "L1210", "assay": "Induction of necrosis in mouse L1210 cells at >= 1 uM preincubated for 1 hr followed by 1.05 J/cm2 UV-A irradiation", "format": "functional"}, "L1210 [18]": {"system": "L1210", "assay": "Induction of autophagy in mouse L1210 cells assessed as accumulation of LC3BII at 0.5 uM preincubated for 1 hr measured after 8 hrs by Western blot method in absence of light", "format": "cell-based", "conditions": "l1210, 8 h"}, "L1210 [19]": {"system": "L1210", "assay": "Drug uptake in mouse L1210 cells at 1 uM after 15 mins to 6 hrs by fluorescence microscopy", "format": "ADME, cell-based", "conditions": "l1210, 1 µM"}, "L1210 [20]": {"system": "L1210", "assay": "Induction of cell cycle arrest in mouse L1210 cells assessed as accumulation at sub-G0 phase at 1 uM preincubated for 1 hr followed by 1.05 J/cm2 UV-A irradiation measured after 4 hrs by propidium iodide staining-based flow cytometry (reference value: 16.8 +/- 0.6%)", "format": "functional"}, "[21]": {"assay": "Drug uptake in plasma membrane of mouse L1210 cells at 1 uM after 1 to 6 hrs by fluorescence microscopy", "format": "ADME, cell-based", "conditions": "l1210, 1 µM"}, "[22]": {"assay": "Cytotoxicity against human HL60/ADR cells after 48 hrs by MTT assay", "format": "functional, cell-based"}, "[23]": {"assay": "Drug uptake in mitochondria of mouse L1210 cells at 2 uM preincubated for 1 hr followed by 1.05 J/cm2 UV-A irradiation by MitoRed staining-based flow cytometry", "format": "ADME", "conditions": "l1210, 2 µM"}, "L1210 [24]": {"system": "L1210", "assay": "Induction of cytomorphological changes in mouse L1210 cells assessed as cell shrinkage at 0.5 uM preincubated for 1 hr followed by 1.05 J/cm2 UV-A irradiation measured after 6 to 24 hrs by Hoechst 33342 staining-based fluorescence microscopy", "format": "functional"}, "L1210 [25]": {"system": "L1210", "assay": "Induction of cell cycle arrest in mouse L1210 cells assessed as accumulation at sub-G0 phase at 1 uM preincubated for 1 hr measured after 24 hrs by propidium iodide staining-based flow cytometry in absence of light (reference value: 16.6 +/- 0.4%)", "conditions": "l1210, 24 h"}, "L1210 [26]": {"system": "L1210", "assay": "Induction of apoptosis in mouse L1210 cells assessed as caspase 9 activation at 1 uM preincubated for 1 hr followed by 1.05 J/cm2 UV-A irradiation measured after 4 to 6 hrs by Western blot method", "format": "functional, cell-based"}, "L1210 [27]": {"system": "L1210", "assay": "Decrease in ATP level in mouse L1210 cells at 0.5 uM preincubated for 1 hr followed by 1.05 J/cm2 UV-A irradiation measured after 6 hrs by luciferase reporter assay", "format": "functional", "parameters": "scale not given: the % may be the effect or the level left"}}, "note": "Calls of active or inactive are those of the source. The calls are words filed in the database; no cut-off is given here."}
{"smiles": "CCCNC(=S)Nc1ccc2cc3ccc(NC(=S)NCCC)cc3nc2c1.Cl", "values": [{"measurement": "Activity", "setting": "L1210 [1]", "result": "Active"}, {"measurement": "Activity", "setting": "L1210 [2]", "result": "Active"}, {"measurement": "Activity", "setting": "L1210 [3]", "result": "Active"}, {"measurement": "Activity", "setting": "L1210 [4]", "result": "Active"}, {"measurement": "Drug uptake", "setting": "[5]", "result": "Not Active"}, {"measurement": "IC50 at 48 h", "setting": "[6]", "result": 43.5, "unit": "µM"}, {"measurement": "IC50 at 48 h", "setting": "[7]", "result": 5.7, "unit": "µM"}, {"measurement": "Activity", "setting": "L1210 [8]", "result": 43.2, "unit": "%"}, {"measurement": "Drug uptake", "setting": "[9]", "result": "Active"}, {"measurement": "Activity", "setting": "L1210 [10]", "result": 17.7, "unit": "%"}, {"measurement": "Activity", "setting": "L1210 [11]", "result": "inactive"}, {"measurement": "IC50", "setting": "[12]", "result": 4.4, "unit": "µM"}, {"measurement": "Activity", "setting": "[13]", "result": "Active"}, {"measurement": "Activity", "setting": "L1210 [14]", "result": "Non-toxic"}, {"measurement": "IC50", "setting": "[15]", "result": 7.2, "unit": "µM"}, {"measurement": "Activity", "setting": "L1210 [16]", "result": "inactive"}, {"measurement": "Activity", "setting": "L1210 [17]", "result": 95, "unit": "%"}, {"measurement": "Activity", "setting": "L1210 [18]", "result": "Non-toxic"}, {"measurement": "Drug uptake", "setting": "L1210 [19]", "result": "Active"}, {"measurement": "Activity", "setting": "L1210 [20]", "result": 32.5, "unit": "%"}, {"measurement": "Drug uptake", "setting": "[21]", "result": "Not Active"}, {"measurement": "IC50", "setting": "[22]", "result": 7.2, "unit": "µM"}, {"measurement": "Drug uptake", "setting": "[23]", "result": 53, "unit": "%"}, {"measurement": "Activity", "setting": "L1210 [24]", "result": "Active"}, {"measurement": "Activity", "setting": "L1210 [25]", "result": 21.1, "unit": "%"}, {"measurement": "Activity", "setting": "L1210 [26]", "result": "Active"}, {"measurement": "Activity", "setting": "L1210 [27]", "result": 30, "unit": "%"}]}
